Source: patent US12565458B2, “Granulated agricultural composition comprising macro- and micronutrients, and related methods” (YPF SOCIEDAD ANÓNIMA, priority 2021, dated 2026)

System: wheat
Assay: Field experiment 2, Zn impregnation on urea, wheat 2018 (Example 5)
Assay type: in vivo, wheat (SY 120)
Design: WG (weight of grains): unit not given here

NC(N)=O [Urea 200]
Yield (wheat grain yield, Pergamino 2018): 5136.4 kg ha^−1
Dry M Z25 (initial dry matter) (wheat, Z25, Pergamino 2018): 2450.0
Coverage and Intercep. Z65 (wheat, Z65, Pergamino 2018): 91.7
NDVI GS 65 (Green seeker) (wheat, Z65, Pergamino 2018): 0.40
Plant height (wheat, Z65, Pergamino 2018): 75.0 cm
Spad Z65 (green intensity) (wheat, Z65, Pergamino 2018): 40.8 Spad units
Vigor Z65 (1-5) (wheat, Z65, index 1 minimum 5 maximum): 3.9
Plants m^−2 (number of emerged plants) (wheat, Zn impregnation on Urea, Pergamino 2018): 239.0 m^−2
NG m^−2 (number of grains) (wheat, harvest, Pergamino 2018): 16410.1 m^−2
WG (weight of grains) (wheat, harvest, Pergamino 2018): 31.3
